Values quoted from earlier work as cited in US12597519B2, “Methods for characterizing and treating a cancer type using cancer images” (TESARO, INC., priority 2019, dated 2026).

Tests used:
[1] = tested on: platinum-sensitive relapsed ovarian cancer
[2] = tested on: cancer cell lines silenced for BRCA-1 or BRCA-2, or carrying BRCA-1 or BRCA-2 mutations; settings: BRCA-defective cells

Structure (SMILES) | overall survival benefit ([1]; interim analysis, intent to treat populations) | outcome in subset of patients who had BRCA mutations ([1]; planned analysis, BRCA mutation subset) | mechanism of antiproliferative activity [2]
O=C(c1cc(Cc2n[nH]c(=O)c3ccccc23)ccc1F)N1CCN(C(=O)C2CC2)CC1 [olaparib, 4-[(3-{[4-(cyclopropylcarbonyl)piperazin-1-yl]carbonyl}-4-fluorophenyl)methyl]phthalazin-1(2H)-one] | unlikely to translate into an overall survival benefit | clear advantage | 
Cc1ccc(S(=O)(=O)O)cc1.NC(=O)c1cccc2cn(-c3ccc([C@@H]4CCCNC4)cc3)nc12 [Niraparib, (3S)-3-[4-{7-(aminocarbonyl)-2H-indazol-2-yl}phenyl]piperidine] |  |  | cell cycle arrest in G2/M followed by apoptosis
